Data on six compounds can be found in ChEMBL document CHEMBL6153031, “Impact of the hydrophilic-lipophilic balance of free-base and Zn(II) tricationic pyridiniumporphyrins and irradiation wavelength in PDT against the melanoma cell lines” (Eur J Med Chem, 2025).

Data set [1] in a line: Cytotoxicity against human HDF cells assessed as reduction in cell viability incubated for 6 hrs followed by irradiation for 30 mins with light at wavelength of 643 nm and measured after 36 to 48 hrs by MTT assay. The data set is classed as toxicity, cell-based.
Data set [2] can be described thus: Cytotoxicity against human HDF cells assessed as reduction in cell proliferation at 1 uM incubated for 6 hrs followed by irradiation for 30 mins with light at wavelength of 643 nm and measured after 36 to 48 hrs by MTT assay. The data set is classed as toxicity, cell-based. The conditions noted are these: time 2550-3270 min. (In general: Tetrazolium assays rely on reduction of a dye to a coloured formazan, in cell work by metabolically active cells.)

The nature of data set [3]: Cytotoxicity against human HDF cells assessed as reduction in cell viability measured after 36 to 48 hrs by MTT assay. The data set is classed as toxicity, cell-based.
Data set [4] is described as follows: Phototoxicity against human MeWo cells assessed as reduction in cell proliferation at 1 uM incubated for 6 hrs followed by irradiation for 30 mins with light at wavelength of 643 nm and measured after 36 to 48 hrs by MTT assay. The conditions noted are these: light or radiation study, time 2550-3270 min. The data set is classed as functional.
Data set [5] is described as follows: Phototoxicity against human A-375 cells assessed as reduction in cell viability incubated for 6 hrs followed by irradiation for 30 mins with light at wavelength of 643 nm and measured after 36 to 48 hrs by MTT assay. The class given is functional, cell-based. The conditions noted are these: A-375, light or radiation study.
A short description of data set [6]: Cytotoxicity against human HDF cells assessed as reduction in cell viability incubated for 6 hrs followed by irradiation for 30 mins with light at wavelength of 606 nm and measured after 36 to 48 hrs by MTT assay. The class given is toxicity, cell-based.
Data set [7] can be described thus: Cytotoxicity against human MeWo cells assessed as reduction in cell viability measured after 36 to 48 hrs by MTT assay. The class given is toxicity, cell-based.
Data set [8] is described as follows: Cytotoxicity against human A-375 cells assessed as reduction in cell viability measured after 36 to 48 hrs by MTT assay. The data set is classed as toxicity, cell-based.
The nature of data set [9]: Phototoxicity against human A-375 cells assessed as reduction in cell proliferation at 1 uM incubated for 6 hrs followed by irradiation for 30 mins with light at wavelength of 643 nm and measured after 36 to 48 hrs by MTT assay. The data set is classed as functional. The conditions noted are these: A-375, light or radiation study, time 2550-3270 min.
A short description of data set [10]: Phototoxicity against human MeWo cells assessed as reduction in cell viability incubated for 6 hrs followed by irradiation for 30 mins with light at wavelength of 606 nm and measured after 36 to 48 hrs by MTT assay. The data set is classed as functional, cell-based. Particulars: light or radiation study; call rule not given here.
A short description of data set [11]: Phototoxicity against human A-375 cells assessed as reduction in cell viability incubated for 6 hrs followed by irradiation for 30 mins with light at wavelength of 606 nm and measured after 36 to 48 hrs by MTT assay. The class given is functional, cell-based. Particulars: A-375, light or radiation study.
A short description of data set [12]: Phototoxicity against human MeWo cells assessed as reduction in cell viability incubated for 6 hrs followed by irradiation for 30 mins with light at wavelength of 643 nm and measured after 36 to 48 hrs by MTT assay. The class given is functional, cell-based. The conditions noted are these: light or radiation study.
Data set [13] is described as follows: Drug uptake in human MeWo cells at 1 uM measured at 37 degC after 6 hrs by fluorescence based analysis. The class given is ADME, cell-based.
Data set [14] can be described thus: Drug uptake in human HDF cells at 1 uM measured at 37 degC after 6 hrs by fluorescence based analysis. The class given is ADME, cell-based.
Data set [15] is described as follows: Drug uptake in human MeWo cells at 1 uM measured at 4 degC after 6 hrs by fluorescence based analysis. The data set is classed as ADME, cell-based.
Data set [16] can be described thus: Drug uptake in human HDF cells at 1 uM measured at 4 degC after 6 hrs by fluorescence based analysis. The data set is classed as ADME, cell-based.
A short description of data set [17]: Drug uptake in cytoplasmic organelles in human HDF cells at 5 uM incubated for 6 hrs by DIOC6(3) dye based fluorescence microscopy. The data set is classed as ADME, cell-based.
Data set [18] in a line: Drug uptake in human MeWo cells at 1 uM measured after 6 hrs by fluorescence based analysis. The class given is ADME, cell-based.
Data set [19] is described as follows: Drug uptake in human A-375 cells at 1 uM measured after 6 hrs by fluorescence based analysis. The class given is ADME, cell-based. Particulars: a-375, 6 h.
Data set [20] in a line: Drug uptake in nucleus in human HDF cells at 5 uM incubated for 6 hrs by DIOC6(3) dye based fluorescence microscopy. The class given is ADME, cell-based.
Data set [21] can be described thus: Drug uptake in nucleus in human MeWo cells at 5 uM incubated for 6 hrs by DIOC6(3) dye based fluorescence microscopy. The class given is ADME, cell-based.
The nature of data set [22]: Drug uptake in cytoplasmic organelles in human MeWo cells at 5 uM incubated for 6 hrs by DIOC6(3) dye based fluorescence microscopy. The data set is classed as ADME, cell-based.
Data set [23] in a line: Drug uptake in human HDF cells at 1 uM measured per 10^3 cells after 24 hrs by fluorescence based analysis. The class given is ADME, cell-based.
Data set [24] in a line: Drug uptake in human HDF cells at 1 uM measured after 6 hrs by fluorescence based analysis. The data set is classed as ADME, cell-based.
A short description of data set [25]: Phototoxicity against human A-375 cells assessed as cell proliferation rate at 1 uM incubated for 6 hrs followed by irradiation for 30 mins with light at wavelength of 606 nm and measured after 36 to 48 hrs by MTT assay. Particulars: A-375, light or radiation study, time 2550-3270 min, read-out: Activity. The data set is classed as functional.
Data set [26] can be described thus: Phototoxicity against human A-375 cells assessed as cell proliferation rate at 1 uM incubated for 6 hrs followed by irradiation for 30 mins with light at wavelength of 643 nm and measured after 36 to 48 hrs by MTT assay. The class given is functional. The conditions noted are these: A-375, light or radiation study, time 2550-3270 min, read-out: Activity.

In general, IC50 refers to the point on the concentration scale where inhibition reaches its midpoint. The term inhibition denotes the drop in the measured response relative to a control, in per cent. `CCCCCCCCCCCC(=O)Nc1ccc(-c2c3nc(c(-c4ccc[n+](C)c4)c4ccc([nH]4)c(-c4ccc[n+](C)c4)c4nc(c(-c5ccc[n+](C)c5)c5ccc2[nH]5)C=C4)C=C3)cc1`: the IC50 in [1] was 4.65 µM; in data set [3], greater than 100 µM; in data set [5] it was 290 nM; in data set [6], 6.26 µM; in data set [7], greater than 100 µM; in data set [8], greater than 100 µM. The IC50 in data set [10] is 4.27 µM; in data set [11], 330 nM; in data set [12], 2360 nM. Also, the inhibition at 1 µM in [2] was less than 20%; in data set [4], 40%; in [9], greater than 90%.

`CCCCCCCC(=O)Nc1ccc(-c2c3nc(c(-c4ccc[n+](C)c4)c4ccc([nH]4)c(-c4ccc[n+](C)c4)c4nc(c(-c5ccc[n+](C)c5)c5ccc2[nH]5)C=C4)C=C3)cc1.[Cl-].[Cl-].[Cl-]`: the IC50 in data set [1] was 25.7 µM; in data set [3] it was greater than 100 µM; in data set [5], 2500 nM; in data set [6], 32 µM; in data set [7] it was greater than 100 µM; in [8], greater than 100 µM. In addition, the IC50 in data set [10] is 18.9 µM; in [11], 3220 nM; in data set [12], 8310 nM. For the same compound, the Drug uptake entry in data set [13], in data set [14], in data set [15] and in data set [16] was “Active” throughout.

For the compound `CCCCCCCCCCCCCCCCCC(=O)Nc1ccc(-c2c3nc(c(-c4ccc[n+](C)c4)c4ccc([nH]4)c(-c4ccc[n+](C)c4)c4nc(c(-c5ccc[n+](C)c5)c5ccc2[nH]5)C=C4)C=C3)cc1.[Cl-].[Cl-].[Cl-]`, the Drug uptake entry is “Active” in data set [17]; “Active” in data set [18]; “Active” in [19]; “Not_active” in [20]; “Active” in [13]; “Not_active” in [21]. The Drug uptake entry in [14] is listed as “Active”; in data set [22] it was “Active”; in data set [23], ~ 95 nM; in [24] it was “Active”. For the same compound, the IC50 was 0.32 µM in [1]; greater than 100 µM in data set [3]; 90 nM in [5]; 0.67 µM in data set [6]; greater than 100 µM in data set [7]; greater than 100 µM in data set [8]. The figures for the half-inhibitory concentration (IC50) in data set [10], in data set [11] and in [12] were 0.48 µM, 370 nM and 350 nM, respectively.

For the compound `CCCCCCCCCC(=O)Nc1ccc(-c2c3nc(c(-c4ccc[n+](C)c4)c4ccc([nH]4)c(-c4ccc[n+](C)c4)c4nc(c(-c5ccc[n+](C)c5)c5ccc2[nH]5)C=C4)C=C3)cc1.[Cl-].[Cl-].[Cl-]`, the Drug uptake entry is reported as “Active” in data set [17]; “Not_active” in data set [20]; “Active” in [13]; “Not_active” in [21]; “Active” in data set [14]; “Active” in [15]. The Drug uptake entry in data set [22] and in data set [16] was “Active” each time. The IC50 was 7.09 µM in data set [1]; greater than 100 µM in data set [3]; 910 nM in data set [5]; 32.4 µM in data set [6]; greater than 100 µM in data set [7]; greater than 100 µM in [8]. Besides, the results for the IC50 in data set [10], in data set [11] and in data set [12] were 9.77 µM, 3940 nM and 7700 nM, respectively. The growth at 1 µM in data set [25] was greater than 80%; in data set [26], roughly 30%.

With `CCCCCCCCCCCCCCCC(=O)Nc1ccc(-c2c3nc(c(-c4ccc[n+](C)c4)c4ccc([nH]4)c(-c4ccc[n+](C)c4)c4nc(c(-c5ccc[n+](C)c5)c5ccc2[nH]5)C=C4)C=C3)cc1.[Cl-].[Cl-].[Cl-]`, the IC50 is 0.42 µM in data set [1]; greater than 100 µM in data set [3]; 100 nM in data set [5]; 1.48 µM in [6]; greater than 100 µM in data set [7]; greater than 100 µM in data set [8]. In addition, the concentration for half-maximal inhibition (IC50) came to 0.79 µM in data set [10], 380 nM in data set [11] and 560 nM in [12]. The Drug uptake entry in data set [13] was “Active”; in [14], “Active”; in data set [23] it was ~ 26 nM.

For `CC(=O)Nc1ccc(-c2c3nc(c(-c4ccc[n+](C)c4)c4ccc([nH]4)c(-c4ccc[n+](C)c4)c4nc(c(-c5ccc[n+](C)c5)c5ccc2[nH]5)C=C4)C=C3)cc1.[Cl-].[Cl-].[Cl-]`, the IC50 is greater than 100 µM in [1]; greater than 100 µM in [3]; greater than 100000 nM in [5]; greater than 100 µM in data set [6]; greater than 100 µM in data set [7]; greater than 100 µM in data set [8]. Moreover, the IC50 in [10] was greater than 100 µM; in [11], greater than 100000 nM; in data set [12], greater than 100000 nM. Moreover, the Drug uptake result in data set [13], in data set [14], in data set [15] and in data set [16] was “Active” in each case.
